From patent US4606911A, “Pharmaceutical composition for the prevention of dental caries” (Rohto Pharmaceutical Co. Ltd., priority 1984, dated 1986)
≈ marks a conversion by molar mass, not a printed value. Entries after “also recorded” stand apart in the source; their conditions may differ. Where two headings read alike, the source gives them in different places.

Assays:
Format in all cases: cell-based
[1] = test system: Streptococcus mutans OMZ 176; test: Antibacterial activity (MIC, growth in BHI medium); parameters: key to Antibacterial activity (growth): -: grow; ±: slightly grow; +: not grow
Protocol: (§1) To a test tube was charged 3.8 ml of Brain Heart Infusion (BHI) medium, and 100 μl of a sample solution containing oleanolic, ursolic or glycyrrhetic acid and 100 μl of pre-incubated culture of bacterium selected from those listed below were added thereto. The mixture was incubated at 37° C. and then allowed to stand over night. The extent of the growth of bacterium was observed after two or five days.
Streptococcus mutans OMZ 176

[2] = test system: S. mutans OMZ 176 (serotype d); test: microbe, parasite or virus in culture; details: for minimal effective concentration / inhibition at 10 µg/mL / inhibition at 20 µg/mL / inhibition at 30 µg/mL / inhibition at 50 µg/mL / inhibition at 100 µg/mL: Streptococcus mutans; for minimal effective concentration: 20 h, read-out: concentration at which adherence of the bacterial cells is inhibited; for inhibition at 10 µg/mL / inhibition at 20 µg/mL / inhibition at 30 µg/mL / inhibition at 50 µg/mL / inhibition at 100 µg/mL: read-out: Adherence-inhibiting activity (AIP)
Protocol: The adherence-inhibiting activity of the triterpenes of the formula (I) was measured using an inner wall of a test tube in place of the surface of a tooth.
To 2.9 ml of BHI medium containing 5% sucrose in a test tube (i) are added 30 μl of a sample solution prepared by dissolving a compound of: the formula (I) in H2 O or dimethylsulfoxide (DMSO) and 100 μl of culture medium containing S. mutans OMZ 176 (serotype d) which was preincuvated at 37° C. for 24 hours in BHI medium, and the mixture is incubated at 37° C. for 20 hours, with the test tube being maintained at a slant of 30°. The test tube is revolved gently two or three times and the supernatant is transferred to another test tube (ii). To the first test tube (i) is added 3 ml of 50 mM phosphate buffer (pH 7.5), and the test tube is gently revolved two or three times. The resultant supernatant is transferred to the third test tube (iii). The test tubes (ii) and (iii) are each centrifuged and respective supernatants are discarded. To each of the test tubes (i), (ii) and (iii) is added 3 ml of 0.5M NaOH, and the test tubes are shaken to suspend bacterial cells. Absorbance of the resulting suspension is measured at 660 nm. The absorbances obtained with respect to the test tube (i), (ii) and (iii) are represented by Ab(i), Ab(ii) and Ab(iii), respectively. Ab(i) reflects the amount of the bacterial cells adhered to the wall of the test tube and Ab(ii) and Ab(iii) correspond to the amount of the bacterial cells not adhered to the wall.
The same procedure is repeated using 30 μl of distilled water or DMSO in place of the sample solution to obtain a control. The absorbance of the control is represented by Ab(Cont.).
Adherence percentage of bacteria is calculated from the following equation. [formula]
Adherence inhibitory percentage (AIP) is calculated using the adherence percentage according to the following equation. [formula]
The magnitude of adherence-inhibiting activity of each of the samples is shown, in Table 3, by the use of the following symbols: […]

[3] = test system: bacterial cells; test: Adherence of bacterial cells to the surface of an extracted tooth; details: extracted tooth suspended in a culture medium containing sucrose
[4] = test system: Streptococcus salivarius ATCC 9222; test: Antibacterial activity (MIC, growth in BHI medium); parameters: key to Antibacterial activity (growth): -: grow; ±: slightly grow; +: not grow
Protocol: as §1, with “days. The MIC value was determined for each sample and summarized in Table 2. |Streptococcus salivarius ATCC 9222” for “days.”

[5] = test system: Bacillus megaterium QM B1551; test: Antibacterial activity (MIC, growth in BHI medium); parameters: key to Antibacterial activity (growth): -: grow; ±: slightly grow; +: not grow
Protocol: as §1, with “days. The MIC value was determined for each sample and summarized in Table 2. |Bacillus megaterium QM B1551” for “days.”

[6] = text statement, listed as pomolic acid

Structure (SMILES): CC1(C)CC[C@]2(C(=O)O)CC[C@]3(C)C(=CC[C@@H]4[C@@]5(C)CC[C@H](O)[C@@](C)(CO)[C@@H]5CC[C@]43C)[C@@H]2C1 [Hederagenin]
- antibacterial activity to S. mutans (in words) [1]: almost the same antibacterial activity as oleanolic acid; also recorded: have both of the adherence-inhibiting activity and the selective antibacterial activity to S. mutans; also recorded: have both activities
- antibacterial activity at 10 μg/ml (in words) ([1]; 10 μg/ml): ineffective for exhibiting antibacterial activity
- adherence-inhibiting activity (in words) [2]: have both of the adherence-inhibiting activity and the selective antibacterial activity to S. mutans; also recorded: have both activities
- minimal effective concentration [2]: 10 µg/mL
- inhibition at 10 µg/mL [2]: < 25%
- inhibition at 20 µg/mL [2]: > 50%
- inhibition at 30 µg/mL [2]: > 50%
- inhibition at 50 µg/mL [2]: > 50%
- inhibition at 100 µg/mL [2]: > 50%
- adherence of bacterial cells to the surface of an extracted tooth [3]: completely inhibited

Structure (SMILES): C[C@@H]1CC[C@]2(C(=O)O)CC[C@]3(C)C(=CC[C@@H]4[C@@]5(C)CC[C@H](O)C(C)(C)[C@@H]5CC[C@]43C)[C@@H]2[C@]1(C)O [Pomolic acid]
- antibacterial activity at 10 μg/ml (in words) ([1]; 10 μg/ml): ineffective for exhibiting antibacterial activity
- antibacterial activity to S. mutans (in words) ([1]; text statement): almost the same antibacterial activity as oleanolic acid
- antibacterial activity to S. mutans (in words) [1, 6]: have both of the adherence-inhibiting activity and the selective antibacterial activity to S. mutans; also recorded: have both activities
- minimal effective concentration [2]: 10 µg/mL
- inhibition at 10 µg/mL [2]: < 25%
- inhibition at 20 µg/mL [2]: > 50%
- inhibition at 30 µg/mL [2]: > 50%
- inhibition at 50 µg/mL [2]: > 50%
- inhibition at 100 µg/mL [2]: > 50%
- adherence-inhibiting activity (in words) [2, 6]: have both of the adherence-inhibiting activity and the selective antibacterial activity to S. mutans; also recorded: have both activities
- adherence of bacterial cells to the surface of an extracted tooth [3]: completely inhibited

Structure (SMILES): C[C@H]1[C@H](C)CC[C@]2(C(=O)O)CC[C@]3(C)C(=CC[C@@H]4[C@@]5(C)CC[C@H](O)C(C)(C)[C@@H]5CC[C@]43C)[C@H]12 [Ursolic acid]
- antibacterial activity to S. mutans (in words) [1]: also exhibit the selective activity on S. mutans, although the magnitude of the activity is each less than that of glycyrrthetic acid; also recorded: have both of the adherence-inhibiting activity and the selective antibacterial activity to S. mutans; also recorded: have both activities
- Antibacterial activity (growth) ([1]; 10 μg/ml): -
- antibacterial activity at 10 μg/ml (in words) ([1]; 10 μg/ml): ineffective for exhibiting antibacterial activity
- Antibacterial activity (growth) ([1]; 25 μg/ml): -
- Antibacterial activity (growth) ([1]; 50 μg/ml): +
- Antibacterial activity (growth) ([1]; 100 μg/ml): +
- Antibacterial activity (growth) ([1]; 200 μg/ml): +
- Antibacterial activity (growth) ([1]; 400 μg/ml): +
- MIC ([1]; Streptococcus mutans, OMZ176, Streptococcus mutans OMZ 176, BHI, 37° C., read-out: MIC (minimum inhibitory concentration)): 25 µg/mL (≈ 54.7 µM)
- Antibacterial activity (growth) ([4]; 10 μg/ml): -
- Antibacterial activity (growth) ([4]; 25 μg/ml): -
- Antibacterial activity (growth) ([4]; 50 μg/ml): +
- Antibacterial activity (growth) ([4]; 100 μg/ml): +
- Antibacterial activity (growth) ([4]; 200 μg/ml): +
- Antibacterial activity (growth) ([4]; 400 μg/ml): +
- MIC ([4]; ATCC9222, Streptococcus salivarius, BHI, 37° C., read-out: MIC (minimum inhibitory concentration)): 25 µg/mL (≈ 54.7 µM)
- Antibacterial activity (growth) ([5]; 10 μg/ml): -
- Antibacterial activity (growth) ([5]; 25 μg/ml): -
- Antibacterial activity (growth) ([5]; 50 μg/ml): -
- Antibacterial activity (growth) ([5]; 100 μg/ml): -
- Antibacterial activity (growth) ([5]; 200 μg/ml): -
- Antibacterial activity (growth) ([5]; 400 μg/ml): -
- MIC ([5]; Priestia megaterium, QMB1551, Bacillus megaterium, BHI, 37° C., read-out: MIC (minimum inhibitory concentration)): > 200 µg/mL
- adherence-inhibiting activity (in words) [2]: have both of the adherence-inhibiting activity and the selective antibacterial activity to S. mutans; also recorded: have both activities
- minimal effective concentration [2]: 10 µg/mL
- inhibition at 10 µg/mL [2]: > 50%
- inhibition at 20 µg/mL [2]: > 50%
- inhibition at 30 µg/mL [2]: > 50%
- inhibition at 50 µg/mL [2]: > 50%
- inhibition at 100 µg/mL [2]: > 50%
- adherence of bacterial cells to the surface of an extracted tooth [3]: completely inhibited
